Data on 1 molecule can be found in patent publication US20010033864A1, “Low dose entecavir formulation and use” (priority 2000, published 2001).

In series [1] the test system is hepatitis B virus. Description: 28-day randomized, double-blind, placebo-controlled, dose-escalating trial of safety and antiviral activity in chronic hepatitis B. Format: in vivo, human. The settings on record: for mean log reduction in hepatitis B virus DNA viral levels in the blood: human subjects with chronic HBV infection, day 28. The method, then: The safety and antiviral activity of entecavir given for 28 days to human subjects with chronic hepatitis B virus infection was studied in a randomized, double-blind, placebo-controlled, dose-escalating trial. […] The mean log reduction in hepatitis B virus DNA viral levels in the blood at day 28 were 2.21, 2.25, 2.81, and 2.42 for the 0.05, 0.1, 0.5 and 1.0 mg once daily doses of entecavir, respectively.

Series [2] has as its system hepatitis B virus. In words: 24-week randomized, double-blind, lamivudine-controlled trial of safety and antiviral activity in chronic hepatitis B. The class given is in vivo, human. To be noted: 24 weeks. The method, then:
The safety and antiviral activity of three doses of entecavir (0.01 mg, 0.1 mg and 0.5 mg) given once daily for 24 weeks were studies in adults with chronic hepatitis B in a randomized, double-blind, lamivudine (100 mg QD) controlled trial.

As to `C=C1C(CO)C(O)C[C@@H]1n1cnc2c(=O)[nH]c(N)nc21` (stereo partly drawn) [Entecavir, [1S-(1α,3α, 4β)]-2-amino-1,9-dihydro-9-[4-hydroxy-3-(hydroxymethyl)-2-methylenecyclopentyl]-6H-purin-6-one], the safety / tolerability result is “well tolerated” in the series with hepatitis B virus [1] (0.05-1.0 mg once daily for 28 days, human subjects) and “well tolerated” with hepatitis B virus [2] (all doses (0.01, 0.1, 0.5 mg once daily)). Moreover, the antiviral activity result in the series with hepatitis B virus [1] (all doses tested (0.05, 0.1, 0.5, 1.0 mg once daily), 28 days) is “potent antiviral activity”; in the series with hepatitis B virus [2] (all three doses (0.01, 0.1, 0.5 mg once daily), adults with chronic hepatitis B), “potent antiviral activity”. For the same molecule, the “mean log reduction in hepatitis B virus DNA viral levels in the blood” value is recorded as 2.21 log with hepatitis B virus [1] (0.05 mg once daily), 2.25 log in the series on hepatitis B virus [1] (0.1 mg once daily), 2.81 log with hepatitis B virus [1] (0.5 mg once daily) and 2.42 log in the series with hepatitis B virus [1] (1.0 mg once daily). For the same molecule, the “reductions in hepatitis B virus DNA viral levels in blood compared to lamivudine” value in the series with hepatitis B virus [2] (two higher doses (0.1 mg and 0.5 mg once daily), vs lamivudine 100 mg QD) is given as “significantly greater reductions”.
